Experimental data as given in patent US8134007B2, “Pyridine derivatives” (Pfizer Inc., priority 2007, dated 2012).
pIC50: −log10 of the molar value.

Experiments:
Type in all cases: cell-based
[1] = target: T1, Human Nav1.5 (Homo sapiens, UniProt Q14524); assay: Nav1.5 Assay (VIPR, HEK293 cells); conditions: HEK293 cells expressing Human Nav1.5; average of replicates; read-out: Nav1.5 IC50
T1 construct: expressed in transfected cells; host or cells: HEK293
Protocol: The Nav1.5 assay is performed in HEK293 cells expressing Human Nav1.5 in the same way as the Nav1.8 assay.
Where replicate experiments were conducted resulting in multiple sets of data for a test compound, the data presented represent the average value from all replicate experiments.

[2] = target: T2, Human Nav1.8 (Homo sapiens, UniProt Q9Y5Y9); assay: VIPR Assay for Nav1.8 Compounds (FRET membrane potential, deltamethrin opener); conditions: VIPR FRET membrane potential assay, deltamethrin opener; average of replicates; read-out: Nav1.8 IC50
T2 construct: expressed in transfected cells; host or cells: HEK293

[3] = tested on: tetrodotoxin-sensitive voltage-gated sodium channels including NaV1.2, NaV1.3 and NaV1.7; assay: TTX-S Assay (VIPR, SHSY-5Y cell line, veratridine opener); conditions: read-out: TTX-S IC50, veratridine 50 μM opener, average of replicates

T2 sequence (Q9Y5Y9 whole entry): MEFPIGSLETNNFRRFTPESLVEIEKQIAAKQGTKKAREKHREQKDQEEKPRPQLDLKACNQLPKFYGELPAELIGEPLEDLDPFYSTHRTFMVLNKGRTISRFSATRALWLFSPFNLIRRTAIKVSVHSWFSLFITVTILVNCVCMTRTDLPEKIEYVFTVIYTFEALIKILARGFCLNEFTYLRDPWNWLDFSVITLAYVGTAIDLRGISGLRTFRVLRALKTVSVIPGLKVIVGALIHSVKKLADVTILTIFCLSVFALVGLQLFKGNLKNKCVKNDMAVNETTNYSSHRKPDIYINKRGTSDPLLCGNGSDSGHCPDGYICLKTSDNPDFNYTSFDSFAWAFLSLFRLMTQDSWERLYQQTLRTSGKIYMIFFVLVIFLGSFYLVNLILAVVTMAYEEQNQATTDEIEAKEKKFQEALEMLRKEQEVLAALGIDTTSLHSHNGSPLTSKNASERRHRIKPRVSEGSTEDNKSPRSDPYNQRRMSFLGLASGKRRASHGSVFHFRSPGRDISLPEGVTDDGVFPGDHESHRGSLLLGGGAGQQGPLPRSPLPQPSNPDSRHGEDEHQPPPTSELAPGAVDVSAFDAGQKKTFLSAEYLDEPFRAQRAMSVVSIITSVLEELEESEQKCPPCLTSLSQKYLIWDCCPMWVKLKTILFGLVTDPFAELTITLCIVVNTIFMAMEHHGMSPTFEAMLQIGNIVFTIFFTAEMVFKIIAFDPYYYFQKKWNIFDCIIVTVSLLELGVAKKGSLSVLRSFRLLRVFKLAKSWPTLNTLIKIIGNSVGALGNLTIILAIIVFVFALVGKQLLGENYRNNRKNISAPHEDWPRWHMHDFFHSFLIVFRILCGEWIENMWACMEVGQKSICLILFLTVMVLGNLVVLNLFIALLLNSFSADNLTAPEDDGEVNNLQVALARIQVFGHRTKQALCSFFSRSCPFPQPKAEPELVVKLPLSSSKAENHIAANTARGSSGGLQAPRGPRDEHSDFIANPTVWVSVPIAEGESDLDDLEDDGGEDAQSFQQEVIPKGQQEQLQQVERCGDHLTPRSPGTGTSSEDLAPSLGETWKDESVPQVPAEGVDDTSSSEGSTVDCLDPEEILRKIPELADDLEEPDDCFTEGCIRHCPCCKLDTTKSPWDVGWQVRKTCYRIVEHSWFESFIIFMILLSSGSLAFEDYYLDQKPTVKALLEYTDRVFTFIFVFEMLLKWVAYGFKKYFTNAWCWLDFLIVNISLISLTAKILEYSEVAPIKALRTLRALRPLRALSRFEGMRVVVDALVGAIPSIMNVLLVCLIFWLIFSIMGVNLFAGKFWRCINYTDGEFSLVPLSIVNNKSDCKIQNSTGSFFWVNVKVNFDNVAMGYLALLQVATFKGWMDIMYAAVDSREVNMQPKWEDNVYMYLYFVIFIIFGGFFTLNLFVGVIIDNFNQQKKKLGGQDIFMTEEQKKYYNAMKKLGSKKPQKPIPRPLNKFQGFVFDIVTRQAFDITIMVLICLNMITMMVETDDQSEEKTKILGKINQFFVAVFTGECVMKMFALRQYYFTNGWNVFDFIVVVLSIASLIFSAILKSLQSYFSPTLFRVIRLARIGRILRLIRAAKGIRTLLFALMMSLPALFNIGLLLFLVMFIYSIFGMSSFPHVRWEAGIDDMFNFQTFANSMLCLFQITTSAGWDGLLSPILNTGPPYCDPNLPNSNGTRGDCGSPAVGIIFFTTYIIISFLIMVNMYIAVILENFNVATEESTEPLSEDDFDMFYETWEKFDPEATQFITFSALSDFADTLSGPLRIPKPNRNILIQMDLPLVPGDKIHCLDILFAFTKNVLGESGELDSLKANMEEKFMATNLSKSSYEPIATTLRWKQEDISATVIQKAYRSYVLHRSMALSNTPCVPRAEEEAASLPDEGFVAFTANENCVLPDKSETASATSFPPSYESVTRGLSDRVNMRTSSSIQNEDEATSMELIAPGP
T1 sequence (Q14524 whole entry): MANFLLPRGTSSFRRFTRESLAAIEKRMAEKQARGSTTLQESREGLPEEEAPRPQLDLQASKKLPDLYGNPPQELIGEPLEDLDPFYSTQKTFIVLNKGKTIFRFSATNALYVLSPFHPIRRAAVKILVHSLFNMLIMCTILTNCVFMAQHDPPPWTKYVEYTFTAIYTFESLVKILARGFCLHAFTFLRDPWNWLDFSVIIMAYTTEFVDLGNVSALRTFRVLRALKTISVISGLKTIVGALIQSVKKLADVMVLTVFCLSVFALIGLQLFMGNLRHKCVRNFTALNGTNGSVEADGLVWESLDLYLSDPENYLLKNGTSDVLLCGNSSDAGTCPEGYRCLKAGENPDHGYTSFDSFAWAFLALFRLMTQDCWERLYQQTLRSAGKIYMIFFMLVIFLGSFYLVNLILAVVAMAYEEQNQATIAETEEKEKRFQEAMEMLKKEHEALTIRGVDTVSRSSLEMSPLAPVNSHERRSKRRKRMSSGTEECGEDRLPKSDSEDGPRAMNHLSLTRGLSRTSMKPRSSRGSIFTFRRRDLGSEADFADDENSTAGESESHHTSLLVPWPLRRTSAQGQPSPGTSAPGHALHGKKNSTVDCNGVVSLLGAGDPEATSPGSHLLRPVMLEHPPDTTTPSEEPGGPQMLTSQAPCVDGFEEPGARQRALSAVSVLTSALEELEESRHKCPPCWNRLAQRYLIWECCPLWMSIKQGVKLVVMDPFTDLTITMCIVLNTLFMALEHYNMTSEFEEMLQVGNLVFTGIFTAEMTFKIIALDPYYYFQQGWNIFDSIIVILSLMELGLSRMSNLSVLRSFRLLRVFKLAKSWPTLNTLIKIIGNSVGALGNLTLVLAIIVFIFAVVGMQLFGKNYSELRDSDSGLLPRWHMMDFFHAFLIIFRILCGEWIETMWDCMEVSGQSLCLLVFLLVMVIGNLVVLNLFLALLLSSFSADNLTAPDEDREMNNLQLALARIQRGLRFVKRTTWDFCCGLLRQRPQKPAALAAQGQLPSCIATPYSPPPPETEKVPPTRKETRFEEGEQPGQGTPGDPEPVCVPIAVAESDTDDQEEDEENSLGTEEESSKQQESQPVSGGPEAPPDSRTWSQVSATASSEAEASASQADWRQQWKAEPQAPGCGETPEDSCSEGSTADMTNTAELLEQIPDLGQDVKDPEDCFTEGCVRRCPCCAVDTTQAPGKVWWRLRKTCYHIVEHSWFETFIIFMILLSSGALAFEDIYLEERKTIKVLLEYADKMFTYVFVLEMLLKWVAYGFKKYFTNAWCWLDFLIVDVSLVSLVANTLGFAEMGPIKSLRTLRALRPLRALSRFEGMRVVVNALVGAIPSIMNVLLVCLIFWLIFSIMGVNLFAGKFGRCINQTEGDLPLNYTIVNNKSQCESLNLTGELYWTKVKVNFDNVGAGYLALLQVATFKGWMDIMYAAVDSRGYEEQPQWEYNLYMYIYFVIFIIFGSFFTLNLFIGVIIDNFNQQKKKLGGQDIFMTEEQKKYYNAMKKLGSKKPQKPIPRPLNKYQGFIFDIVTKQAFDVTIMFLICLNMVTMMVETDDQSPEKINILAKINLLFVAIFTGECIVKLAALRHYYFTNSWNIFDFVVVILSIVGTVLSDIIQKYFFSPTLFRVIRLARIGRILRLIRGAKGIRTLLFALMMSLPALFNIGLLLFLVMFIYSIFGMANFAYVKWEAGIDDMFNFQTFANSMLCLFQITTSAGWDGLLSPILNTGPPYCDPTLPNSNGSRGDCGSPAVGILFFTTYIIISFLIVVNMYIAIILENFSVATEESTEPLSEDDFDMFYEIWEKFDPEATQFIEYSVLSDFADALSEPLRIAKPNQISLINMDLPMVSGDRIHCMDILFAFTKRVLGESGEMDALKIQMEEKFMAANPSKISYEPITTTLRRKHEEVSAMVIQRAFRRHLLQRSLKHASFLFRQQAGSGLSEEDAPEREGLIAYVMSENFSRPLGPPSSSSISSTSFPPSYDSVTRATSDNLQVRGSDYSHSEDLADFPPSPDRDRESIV

## COCc1nocc1C(=O)Nc1ccc(-c2ccccc2Cl)c(N)n1 [Example 89, N-[6-Amino-5-(2-chlorophenyl)pyridin-2-yl]-3-(methoxymethyl)isoxazole-4-carboxamide]
[1]
  pIC50: < 4.49
[2]
  pIC50: 5.36
[3]
  pIC50: < 4.49

## COCc1nocc1C(=O)Nc1ccc(-c2cc(F)ccc2Cl)c(N)n1 [Example 90, N-[6-Amino-5-(2-chloro-5-fluorophenyl)pyridin-2-yl]-3-(methoxymethyl)isoxazole-4-carboxamide]
[1]
  pIC50: < 4.49
[2]
  pIC50: 6.26
[3]
  pIC50: < 4.49

## COCc1oncc1C(=O)Nc1ccc(-c2ccccc2Cl)c(N)n1 [Example 91]
[1]
  pIC50: < 4.49
[2]
  pIC50: 5.59
[3]
  pIC50: < 4.49

## COCc1oncc1C(=O)Nc1ccc(-c2cc(F)ccc2Cl)c(N)n1 [Example 92]
[1]
  pIC50: 4.72
[2]
  pIC50: 6.24
[3]
  pIC50: 4.77

## COCc1oncc1C(=O)Nc1ccc(-c2ccccc2OC(F)(F)F)c(N)n1 [Example 93]
[1]
  pIC50: < 4.49
[2]
  pIC50: 5.82
[3]
  pIC50: 5.15

## COCc1cc(C(=O)Nc2ccc(-c3ccccc3OC(F)(F)F)c(N)n2)on1 [Example 94]
[1]
  pIC50: 4.51
[2]
  pIC50: < 4.49
[3]
  pIC50: 4.72

## COCc1cc(C(=O)Nc2ccc(-c3ccccc3Cl)c(N)n2)on1 [Example 95]
[1]
  pIC50: < 4.49
[2]
  pIC50: < 4.49
[3]
  pIC50: 4.54

## COCc1cc(C(=O)Nc2ccc(-c3cc(F)ccc3Cl)c(N)n2)on1 [Example 96]
[1]
  pIC50: 5.15
[2]
  pIC50: 5.23
[3]
  pIC50: 4.92

## Nc1nc(NC(=O)c2ccccc2)ccc1-c1ccccc1OC(F)(F)F [Example 99]
[1]
  pIC50: 4.82
[2]
  pIC50: 5.49
[3]
  pIC50: 5.18

## N#Cc1cccc(C(=O)Nc2ccc(-c3ccccc3OC(F)(F)F)c(N)n2)c1 [Example 106, N-{6-Amino-5-[2-(trifluoromethoxy)phenyl]pyridin-2-yl}-3-cyanobenzamide]
[1]
  pIC50: 4.80
[2]
  pIC50: 5.28
[3]
  pIC50: 5.09

## N#Cc1ccccc1C(=O)Nc1ccc(-c2ccccc2OC(F)(F)F)c(N)n1 [Example 107, N-{6-Amino-5-[2-(trifluoromethoxy)phenyl]pyridin-2-yl}-2-cyanobenzamide]
[1]
  pIC50: 5.60
[2]
  pIC50: 5.60
[3]
  pIC50: 5.51

## Cc1n[nH]cc1C(=O)Nc1ccc(-c2ccccc2OC(F)(F)F)c(N)n1 [Example 108, N-{6-Amino-5-[2-(trifluoromethoxy)phenyl]pyridin-2-yl}-3-methyl-1H-pyrazole-4-carboxamide]
[1]
  pIC50: < 4.49
[2]
  pIC50: 4.59
[3]
  pIC50: 4.57

## Nc1nc(NC(=O)c2conc2C(F)(F)F)ccc1-c1ccccc1Cl [Example 111]
[1]
  pIC50: 4.80
[2]
  pIC50: 6.29
[3]
  pIC50: 5.21

## Nc1nc(NC(=O)c2conc2C(F)(F)F)ccc1-c1ccccc1OC(F)(F)F [Example 112]
[1]
  pIC50: 5.11
[2]
  pIC50: 6.03
[3]
  pIC50: 5.35

## COc1ccc(Cl)c(-c2ccc(NC(=O)c3conc3C(F)(F)F)nc2N)c1 [Example 113]
[1]
  pIC50: 4.85
[2]
  pIC50: 5.42
[3]
  pIC50: 5.06

## Nc1nc(NC(=O)c2conc2C(F)(F)F)ccc1-c1cc(F)ccc1Cl [Example 114]
[1]
  pIC50: 5.39
[2]
  pIC50: 6.51
[3]
  pIC50: 5.40

## Cc1nocc1C(=O)Nc1ccc(-c2cc(F)ccc2OC(F)(F)F)c(N)n1 [Example 115]
[1]
  pIC50: 5.10
[2]
  pIC50: 6.55
[3]
  pIC50: 5.28

## Cn1nccc1C(=O)Nc1ccc(-c2cc(F)ccc2OC(F)(F)F)c(N)n1 [Example 116]
[1]
  pIC50: 4.55
[2]
  pIC50: 5.64
[3]
  pIC50: 4.59

## Cn1nccc1C(=O)Nc1ccc(-c2ccccc2OCC(F)(F)F)c(N)n1 [Example 119]
[1]
  pIC50: 4.51
[2]
  pIC50: 5.70
[3]
  pIC50: 4.59

## Cn1nccc1C(=O)Nc1ccc(-c2ccc(OC(F)(F)F)cc2)c(N)n1 [Example 120]
[1]
  pIC50: 5.00
[2]
  pIC50: 4.92
[3]
  pIC50: 5.28

## Cn1nccc1C(=O)Nc1ccc(-c2ccc(OC(F)(F)F)c(F)c2)c(N)n1 [Example 121]
[1]
  pIC50: 5.07
[2]
  pIC50: 5.00
[3]
  pIC50: 5.49

## Cn1nccc1C(=O)Nc1ccc(-c2ccc(OCC(F)(F)F)cc2)c(N)n1 [Example 122]
[1]
  pIC50: 4.85
[2]
  pIC50: 4.72
[3]
  pIC50: 4.92

## Cc1nocc1C(=O)Nc1ccc(-c2cccc(C(F)(F)F)c2Cl)c(N)n1 [Example 124]
[1]
  pIC50: 4.92
[2]
  pIC50: 4.96
[3]
  pIC50: 5.07

## Cc1nocc1C(=O)Nc1ccc(-c2cc(F)ccc2O)c(N)n1 [Example 128]
[1]
  pIC50: < 4.49
[2]
  pIC50: 4.82
[3]
  pIC50: < 4.49

## Cc1nocc1C(=O)Nc1ccc(-c2cc(O)ccc2Cl)c(N)n1 [Example 175, N-[6-amino-5-(2-chloro-5-hydroxyphenyl)pyridin-2-yl]-3-methylisoxazole-4-carboxamide]
[1]
  pIC50: < 4.49
[2]
  pIC50: 4.64
[3]
  pIC50: 4.70
